Laboratory results taken from ChEMBL document CHEMBL4725233, “Anti-inflammatory principles from Lindera aggregata” (Bioorg Med Chem Lett, 2020).

Tests used:
[1] = system: Neutrophil; experiment: Antiinflammatory activity in human neutrophils assessed as inhibition of fMLF/cytochalasin B-induced superoxide anion generation at 10 uM preincubated for 5 mins followed by fMLF addition after priming with CB for 3 mins by spectrophotometric analysis relative to control; type: functional
[2] = system: Neutrophil; experiment: Antiinflammatory activity in human neutrophils assessed as inhibition of fMLF/cytochalasin B-induced superoxide anion generation preincubated for 5 mins followed by fMLF addition after priming with CB for 3 mins by spectrophotometric analysis; type: functional, cell-based

| SMILES | inhibition at 10 µM [1] [%] | IC50 [2] [µM] |
| --- | --- | --- |
| COc1cc2c(cc1O)C[C@H]1c3c(cc(OC)c(OC)c3-2)CCN1C | > 50 | 8.36 |
| C=C1O[C@@H]2[C@@H](OC(C)=O)C3=C(C)C(=O)OC3=C[C@@]2(C)[C@@H]2C[C@H]12 | > 50 | 7.45 |
| O=c1c(-c2ccc(O)cc2)coc2cc(O)cc(O)c12 [GENISTEIN] | – | 1.11 |
| COc1cc2c(cc1O)C[C@H]1c3c(cc(OC)c(O)c3-2)CCN1C [ISOBOLDINE] | > 50 | 5.81 |
